Consider four molecules from patent US20240025903A1, “Bicyclic Compounds and Uses Thereof for the Treatment of Diseases” (Athira Pharma, Inc., priority 2020, published 2024).

Where two headings read alike, the source gives them in different places.

Data set [1] is described as follows: In vitro stability in human plasma. Format: in vitro ADME. The following applies: 5 μM, 37° C. The method, then:
(§1) Bioavailability can be estimated by compound stability when exposed to conditions in the body. As an initial assessment of stability properties in a variety of conditions present in animals, exemplary compounds were tested for stability in a battery of simulated body compartments. Compounds were tested for stability in the following solutions: simulated gastric fluid (SGF: 34.2 mM NaCl, pH 1.2), simulated gastric fluid with the digestive enzyme pepsin (SGF+Enzyme: SGF with 3.2 mg/ml pepsin), simulated intestinal fluid with the mixture of enzymes in porcine pancreatin (SIF+Enzyme: 28.7 mM NaH2PO4, 105.7 mM NaCl, pH 6.8, 10 mg/ml pancreatin), rat plasma, and human plasma.
(§2) Test compounds were incubated at a final concentration of 5 μM in the above solutions at 37° C. with samples removed at the following time points: 0, 1, 2, and 4 hours. Reactions were stopped and prepared for quantification by addition of excess quench solution containing an internal standard (acetonitrile, 200 ng/mL bucetin). Test compound and internal standard in each sample was quantified by LC-MS/MS, and after internal normalization to bucetin, test compound concentration was expressed as a percentage of concentration at the 0-hour time point. Stability in the relevant test solution was then determined by the percent remaining at the 4-hour time point.

The nature of the next data set: In vivo pharmacokinetics. The following applies: both sexes, Sprague-Dawley, rat; for Tmax: plasma; for AUC: dose-corrected plasma AUC; for Cmax: dose-corrected plasma Cmax. Also noted: species or system Sprague-Dawley rats. The procedure: Administration of exemplary compounds by selected routes followed by blood collection and compound quantification in plasma was used to determine the pharmacokinetic (PK) profile of the compounds. Compounds were administered to mixed-sex Sprague-Dawley rats of at least 250 grams by dissolving the test compound in DMSO and then diluting the compound into an appropriate vehicle, either saline or saline and poly-ethylene glycol. Dosing was accomplished by either tail vein puncture (IV) or oral gavage (PO), and animals were administered compound according to their weight at 1 mL/kg. At selected intervals following administration (10, 20, 40, 60, 120, and 360 minutes), blood was collected by tail vein blood draw. Whole blood was then processed by centrifugation to produce plasma. Compound content in plasma samples was quantified by LC-MS/MS and compared to an internal standard and standard curves to determine concentration accurately. Plasma concentrations were then averaged for each time point and plotted as a function of time. Area under the curve was calculated by integration of the curve, Cmax was the highest concentration achieved in plasma, and Tmax was determined by the timing of Cmax.

Data set [2] is described as follows: Parallel artificial membrane permeability assay (PAMPA). The following applies: PBS, room temperature. Format: in vitro ADME. The method, boiled down:
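Donor wells held compound at 200 μM in PBS (5 replicates) against PBS acceptor wells, incubated 5 h at room temperature. Donor and acceptor concentrations were read by UV against a 0–200 μM standard curve. Pe and membrane retention were calculated from the stated equations.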

Data set [3] in a line: Oral availability calculation. Type of data set: in vivo, Sprague-Dawley rats. The following applies: both sexes, Sprague-Dawley, plasma; rat, dose corrected AUC PO / dose corrected AUC IV x 100. The source says:
Oral bioavailability is critical to developing small molecule therapeutics for oral administration. Calculations of oral bioavailability (% F) are accomplished by comparing in vivo pharmacokinetic data (Example B7) using IV dosing as the maximum possible exposure and determining the exposure rate after PO administration. In these studies, dose corrected AUC from PO administration was divided by dose corrected AUC from IV administration and multiplied by 100 to yield the % F. Results are shown in Table 9.

Data set [4] can be described thus: In vitro stability in simulated gastric and intestinal fluids. Format: in vitro ADME. The following applies: 37° C.; for SGF + Enz (compound remaining after 4 hours): SGF with 3.2 mg/ml pepsin; for SGF + Enz (compound remaining after 4 hours) / SIF (compound remaining after 4 hours): 5 μM; for SGF (compound remaining after 4 hours): simulated gastric fluid pH 1.2, 5 μM; for SIF (compound remaining after 4 hours): simulated intestinal fluid pH 6.8 with 10 mg/ml pancreatin. The procedure:
as §1, §2

A short description of data set [5]: In vitro stability in rat plasma. The following applies: 5 μM, 37° C. Format: in vitro ADME. The method, then: as §1, §2
A short description of data set [6]: In vivo tissue distribution. More on the design: species or system Sprague-dawley rats. The following applies: rat. The procedure: The rate of distribution to target tissues is an important feature of therapeutic molecules. Tissue distribution of exemplary compounds was performed in mixed-sex Sprague-dawley rats. Test compounds were delivered via tail vein injection (IV) and tissues were collected at Tmax (10 minutes post administration). Animals were deeply anesthetized with isoflurane and whole blood was collected from the right atrium and processed by centrifugation to produce plasma. Animals were then fully perfused with PBS administered to the left ventricle to prevent blood contamination of tissues.
Tissues were collected and homogenized, and compound content in the target tissue was quantified by LC-MS/MS. Tissue distribution rates were determined by dividing the tissue concentration of compound by the plasma concentration and multiplying by 100.

The mark [7] stands for this setting: IV (tail vein), read-out: TMAX IV.
Where [8] appears, read: PO (oral gavage), read-out: TMAX PO.
The mark [9] stands for this setting: IV (tail vein), read-out: AUC IV.
Where [10] appears, read: IV (tail vein), read-out: CMAX IV.
The mark [11] stands for this setting: PO (oral gavage), read-out: AUC PO.
Setting [12] is: PO (oral gavage), read-out: CMAX PO.

For `CCC(C)CN1CC2N(C(=O)c3ccc(C(F)(F)F)c(Cl)c3)CCC(=O)N2C(C)C1=O` (stereo not drawn) [Compound 12, 1-(3-chloro-4-(trifluoromethyl)benzoyl)-6-methyl-8-(2-methylbutyl)hexahydro-4H-pyrazino[1,2-a]pyrimidine-4,7(6H)-dione], the “Human Plasma (compound remaining after 4 hours)” value in data set [1] is recorded as “+++ (+++ indicates 80-99% compound remaining after 4 hours)”. The Tmax in the data set “In vivo pharmacokinetics” (setting [7]) is under 30 min. Also, in the data set “In vivo pharmacokinetics” (setting [8]), the Tmax was over 60 min. For the same molecule, the AUC in the data set “In vivo pharmacokinetics” (setting [9]) lay within 0.1 to 0.999 µg·h/mL. The Cmax in the data set “In vivo pharmacokinetics” (setting [10]) is 0.1 to 0.999 µg/mL. Also, the AUC in the data set “In vivo pharmacokinetics” (setting [11]) is 0.1 to 0.999 µg·h/mL. The Cmax in the data set “In vivo pharmacokinetics” (setting [12]) lay in the range of 0.001 to 0.1 µg/mL. In data set [2], the Papp at 5 h, 200 µM is under 20 nm/s. Further, the bioavailability in data set [3] is 25 to 50%. Also, in data set [4], the “SGF + Enz (compound remaining after 4 hours)” value is “+++ (+++ indicates 80-99% compound remaining after 4 hours)”, the “SGF (compound remaining after 4 hours)” value is listed as “+++ (+++ indicates 80-99% compound remaining after 4 hours)” and the “SIF (compound remaining after 4 hours)” value is reported as “++ (++ indicates 40-79% compound remaining after 4 hours)”. Also, the “Rat Plasma (compound remaining after 4 hours)” value in data set [5] was “++++ (++++ indicates 100% compound remaining after 4 hours)”. Also, in data set [6], the “Tissue Distribution (% Plasma exposure at 10 min post IV dose) Brain” value is “++ (++ indicates distribution between 5 and 39%)”; the “Tissue Distribution (% Plasma exposure at 10 min post IV dose) Cerebellum” value is “++ (++ indicates distribution between 5 and 39%)”; the “Tissue Distribution (% Plasma exposure at 10 min post IV dose) Cortex” value is “++ (++ indicates distribution between 5 and 39%)”; the “Tissue Distribution (% Plasma exposure at 10 min post IV dose) Hippocampus” value is “++ (++ indicates distribution between 5 and 39%)”. For the same molecule, the “Tissue Distribution (% Plasma exposure at 10 min post IV dose) Sciatic Nerve” value in data set [6] is “+++ (+++ indicates distribution between 40 and 69%)”.
As for `CC1C(=O)N(CC2CCC2)CC2N(C(=O)c3ccc(OC(F)F)cc3)CCC(=O)N12` (stereo not drawn) [Compound 14], the “Human Plasma (compound remaining after 4 hours)” value in data set [1] is given as “+++ (+++ indicates 80-99% compound remaining after 4 hours)”. Moreover, the Tmax in the data set “In vivo pharmacokinetics” (setting [7]) was under 30 min. Besides, in “In vivo pharmacokinetics” (setting [8]), the Tmax is over 60 min. Moreover, the exposure (AUC) in “In vivo pharmacokinetics” (setting [9]) was in the range of 1 to 3 µg·h/mL. Further, the Cmax in the data set “In vivo pharmacokinetics” (setting [10]) was in the range of 0.1 to 0.999 µg/mL. Also, the AUC in the data set “In vivo pharmacokinetics” (setting [11]) lay in the range of 1 to 3 µg·h/mL. In addition, the Cmax in “In vivo pharmacokinetics” (setting [12]) lay in the range of 0.1 to 0.999 µg/mL. For the same molecule, the apparent permeability coefficient (Papp) at 5 h, 200 µM in data set [2] was over 20 nm/s. In addition, in data set [3], the bioavailability was over 50%. In data set [4], the “SGF + Enz (compound remaining after 4 hours)” value is on record as “++ (++ indicates 40-79% compound remaining after 4 hours)”, the “SGF (compound remaining after 4 hours)” value is recorded as “++ (++ indicates 40-79% compound remaining after 4 hours)” and the “SIF (compound remaining after 4 hours)” value is recorded as “+++ (+++ indicates 80-99% compound remaining after 4 hours)”. The “Rat Plasma (compound remaining after 4 hours)” value in data set [5] is “+++ (+++ indicates 80-99% compound remaining after 4 hours)”. Besides, in data set [6], the “Tissue Distribution (% Plasma exposure at 10 min post IV dose) Brain” value was “++ (++ indicates distribution between 5 and 39%)”; the “Tissue Distribution (% Plasma exposure at 10 min post IV dose) Cerebellum” value was “++ (++ indicates distribution between 5 and 39%)”; the “Tissue Distribution (% Plasma exposure at 10 min post IV dose) Cortex” value is “++ (++ indicates distribution between 5 and 39%)”; the “Tissue Distribution (% Plasma exposure at 10 min post IV dose) Hippocampus” value was “++ (++ indicates distribution between 5 and 39%)”. In addition, in data set [6], the “Tissue Distribution (% Plasma exposure at 10 min post IV dose) Sciatic Nerve” value is “++ (++ indicates distribution between 5 and 39%)”.
In the case of `CC1C(=O)N(CCC2CCC2)CC2N(C(=O)c3ccc(C(F)(F)F)cc3)CCC(=O)N12` (stereo not drawn) [Compound 20], the “Human Plasma (compound remaining after 4 hours)” value in data set [1] was “+++ (+++ indicates 80-99% compound remaining after 4 hours)”. Further, the time to peak (Tmax) in the data set “In vivo pharmacokinetics” (setting [7]) is under 30 min. In addition, the Tmax in the data set “In vivo pharmacokinetics” (setting [8]) was over 60 min. In the data set “In vivo pharmacokinetics” (setting [9]), the area under the curve (AUC) is 1 to 3 µg·h/mL. Also, in “In vivo pharmacokinetics” (setting [10]), the Cmax is 1 to 3 µg/mL. The AUC in the data set “In vivo pharmacokinetics” (setting [11]) was 1 to 3 µg·h/mL. For the same molecule, the Cmax in the data set “In vivo pharmacokinetics” (setting [12]) fell in the range of 0.1 to 0.999 µg/mL. The molecule also displayed a Papp at 5 h, 200 µM in data set [2] of under 20 nm/s. The bioavailability in data set [3] is over 50%. Also, in data set [4], the “SGF + Enz (compound remaining after 4 hours)” value is on record as “+++ (+++ indicates 80-99% compound remaining after 4 hours)”, the “SGF (compound remaining after 4 hours)” value is “+++ (+++ indicates 80-99% compound remaining after 4 hours)” and the “SIF (compound remaining after 4 hours)” value is “+++ (+++ indicates 80-99% compound remaining after 4 hours)”. Also, the “Rat Plasma (compound remaining after 4 hours)” value in data set [5] was “++ (++ indicates 40-79% compound remaining after 4 hours)”. Also, in data set [6], the “Tissue Distribution (% Plasma exposure at 10 min post IV dose) Brain” value is on record as “++++ (++++ indicates distribution above 70%)”; the “Tissue Distribution (% Plasma exposure at 10 min post IV dose) Cerebellum” value is “++++ (++++ indicates distribution above 70%)”; the “Tissue Distribution (% Plasma exposure at 10 min post IV dose) Cortex” value is reported as “++++ (++++ indicates distribution above 70%)”; the “Tissue Distribution (% Plasma exposure at 10 min post IV dose) Hippocampus” value is “+++ (+++ indicates distribution between 40 and 69%)”. Moreover, the “Tissue Distribution (% Plasma exposure at 10 min post IV dose) Sciatic Nerve” value in data set [6] is listed as “++++ (++++ indicates distribution above 70%)”.
For the molecule `C=CCCN1CC2N(C(=O)c3ccc(C(F)(F)F)cc3)CCC(=O)N2C(C)C1=O` (stereo not drawn) [Compound 22], the “Human Plasma (compound remaining after 4 hours)” value in data set [1] was “+++ (+++ indicates 80-99% compound remaining after 4 hours)”. The Tmax in “In vivo pharmacokinetics” (setting [7]) is under 30 min. For the same molecule, the Tmax in “In vivo pharmacokinetics” (setting [8]) was in the range of 30 to 60 min. Also, the AUC in the data set “In vivo pharmacokinetics” (setting [9]) is 1 to 3 µg·h/mL. Also, the Cmax in “In vivo pharmacokinetics” (setting [10]) lay in the range of 0.1 to 0.999 µg/mL. Further, the exposure (AUC) in “In vivo pharmacokinetics” (setting [11]) was 0.1 to 0.999 µg·h/mL. In “In vivo pharmacokinetics” (setting [12]), the Cmax is 0.1 to 0.999 µg/mL. The Papp at 5 h, 200 µM in data set [2] is under 20 nm/s. The bioavailability in data set [3] is 25 to 50%. In addition, in data set [4], the “SGF + Enz (compound remaining after 4 hours)” value is listed as “+++ (+++ indicates 80-99% compound remaining after 4 hours)”, the “SGF (compound remaining after 4 hours)” value is “+++ (+++ indicates 80-99% compound remaining after 4 hours)” and the “SIF (compound remaining after 4 hours)” value is recorded as “+++ (+++ indicates 80-99% compound remaining after 4 hours)”. The “Rat Plasma (compound remaining after 4 hours)” value in data set [5] is recorded as “+++ (+++ indicates 80-99% compound remaining after 4 hours)”. Also, in data set [6], the “Tissue Distribution (% Plasma exposure at 10 min post IV dose) Brain” value is “++ (++ indicates distribution between 5 and 39%)”; the “Tissue Distribution (% Plasma exposure at 10 min post IV dose) Cerebellum” value is “++ (++ indicates distribution between 5 and 39%)”; the “Tissue Distribution (% Plasma exposure at 10 min post IV dose) Cortex” value is “++ (++ indicates distribution between 5 and 39%)”; the “Tissue Distribution (% Plasma exposure at 10 min post IV dose) Hippocampus” value is “++ (++ indicates distribution between 5 and 39%)”. In addition, in data set [6], the “Tissue Distribution (% Plasma exposure at 10 min post IV dose) Sciatic Nerve” value was “+++ (+++ indicates distribution between 40 and 69%)”.
